Patent US12091424B2, “Rapamycin derivatives” (NOVARTIS AG, priority 2017, dated 2024)

Key:
[1] = tested on: mTORC1 signaling; assay: MEF TSC1−/− cell-based assay for rapalog potency (pS6); set-up: species or system Mouse; conditions: MEF TSC1−/− cells, average from multiple assays
Procedure: Cell-based assay for rapalog potency determination. Rapalog potency was determined using MEF TSC1−/− cell based assay. MEF TSC1−/− cells are Mouse Embryonic Fibroblasts deficient in Tuberous sclerosis protein—TSC1, which negatively regulates mTORC1 signaling and thus display constitutive mTORC1 activation, resulting in phosphorylation (activation) of downstream molecules. This cell-based assay is used to measure inhibition (de-phosphorylation) of S6 and 4EBP1 by rapalogs or other mTOR inhibitors.
MEF TSC1−/− cells were plated on Poly-D-lysine coated 384 well Griener clear bottom plates and incubated overnight at 37° C., 5% CO2. […] Nuclei were visualized with Hoechst (ThermoFisher Scientific #H3570) staining. Cells were imaged (InCell 600) using respective fluorescence channels and the potency of mTOR inhibitors was defined by pS6 IC50 (nM).
In vitro potency of mTOR inhibitors was defined by pS6 IC50 (nM) in MEF TSC1−/− cells.

[2] = biological target: FKBP51 (Homo sapiens (Human), UniProt Q13451); assay: SPR assay, binding affinity to FKBP51; conditions: single-cycle kinetics
FKBP51, sequence (Q13451 whole entry, the tested form may be a part): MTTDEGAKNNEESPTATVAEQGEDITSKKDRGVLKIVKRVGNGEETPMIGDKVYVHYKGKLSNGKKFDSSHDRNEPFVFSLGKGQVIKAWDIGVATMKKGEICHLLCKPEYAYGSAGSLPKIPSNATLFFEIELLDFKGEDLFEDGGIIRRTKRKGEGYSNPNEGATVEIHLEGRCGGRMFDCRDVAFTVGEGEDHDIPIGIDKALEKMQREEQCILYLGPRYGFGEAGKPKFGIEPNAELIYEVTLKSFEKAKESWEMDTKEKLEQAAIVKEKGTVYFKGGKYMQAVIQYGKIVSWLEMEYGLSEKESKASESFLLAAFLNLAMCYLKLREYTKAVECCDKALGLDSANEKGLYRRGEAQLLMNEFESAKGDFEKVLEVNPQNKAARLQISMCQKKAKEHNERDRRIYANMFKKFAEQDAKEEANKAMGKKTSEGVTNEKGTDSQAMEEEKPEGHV
Procedure: (§1) SPR Assay to Determine Binding Affinity to FK506-Binding Proteins (FKBP). N-terminal avi-his6 tagged FKBP fusions to FKBP12, FKBP51 and FKBP52 were expressed in E. coli and purified using standard chromatography. Each protein was subsequently immobilized on a streptavidin chip in a Biacore 8K SPR instrument (GE Healthcare). Using single-cycle kinetics, compound titrations were flowed at 45 uL/min over each surface using 2-minute association and 30-minute dissociation phases in a buffer containing 50 mM Tris pH 7.5/150 mM NaCl/0.01% Tween 20/1 mM DTT/2% DMSO. The data was fit using low molecular weight (LMW) single-cycle kinetics. The equilibrium dissociation constants (KD) are reported.

[3] = in vivo; conditions: male, Sprague Dawley, rat, whole blood
[4] = tested on: S6K1 (Thr389) in FKBP12 knock-down 293T cells; assay: S6K1 (Thr389) phosphorylation ELISA in FKBP12 knock-down 293T cells; assay type: cell-based; conditions: 2 hours treatment
Procedure: Generating FKPB12 knock-down cells. […] Selection was performed with puromycin for 48 hours and cells were plated for colony formation. FKBP12 knock-down clones were screened by immunoblotting with an anti-FKBP12 antibody (Thermo Scientific, Pierce #PA1-026A).
WT, FKBP12 knock-down and FKBP12 knock-out 293T cells were plated at a density of 30,000 cells per well in poly-D-Lysine coated 96-well plates (Corning, #354461) in Dulbecco's modified Eagle's medium (ThermoFisher, #11995-065) supplemented with 10% fetal bovine serum (ThermoFisher, #16140-071). Cells were incubated at 37° C., 5% CO2 for 48 hours until they reached 80% confluence. […] Media supplemented with blank Dimethyl sulfoxide (DMSO) was used as a control for both compounds. Phosphorylated amounts of S6K1 (Thr389) were detected by a sandwich ELISA kit (Cell signaling, #7063C) following the manufacture's protocol.

[5] = biological target: FKBP52 (Homo sapiens (Human), UniProt Q02790); assay: SPR assay, binding affinity to FKBP52; conditions: single-cycle kinetics
FKBP52, sequence (Q02790 whole entry): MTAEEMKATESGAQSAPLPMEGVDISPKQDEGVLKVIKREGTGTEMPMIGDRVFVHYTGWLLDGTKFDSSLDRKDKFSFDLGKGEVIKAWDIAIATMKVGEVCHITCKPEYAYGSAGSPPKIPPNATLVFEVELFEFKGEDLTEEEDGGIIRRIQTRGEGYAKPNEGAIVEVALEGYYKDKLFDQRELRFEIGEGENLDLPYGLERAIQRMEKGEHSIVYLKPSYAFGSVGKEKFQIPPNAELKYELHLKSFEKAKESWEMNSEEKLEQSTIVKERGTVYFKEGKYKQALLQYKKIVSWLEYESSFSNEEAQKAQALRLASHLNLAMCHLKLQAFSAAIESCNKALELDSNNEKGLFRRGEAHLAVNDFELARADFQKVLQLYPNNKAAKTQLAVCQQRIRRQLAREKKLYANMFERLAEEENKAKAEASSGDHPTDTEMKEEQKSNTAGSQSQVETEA
Procedure: as §1

[6] = biological target: FKBP12 (Homo sapiens (Human), UniProt P62942); assay: SPR assay, binding affinity to FKBP12; conditions: single-cycle kinetics
FKBP12, sequence (P62942 whole entry): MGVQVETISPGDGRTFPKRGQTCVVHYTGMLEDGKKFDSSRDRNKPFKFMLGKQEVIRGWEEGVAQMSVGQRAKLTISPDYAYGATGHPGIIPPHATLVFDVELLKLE
Procedure: as §1

Row | Compound | IC50 ([1]; Mus musculus) [nM] | Kd [2] [nM] | also measured
1 | CO[C@@H]1C[C@H](C[C@@H](C)[C@@H]2CC[C@H](C)/C=C(\C)[C@@H](O)[C@@H](OC)C(=O)[C@H](C)C[C@H](C)/C=C/C=C/C=C(\C)C(N3CCCS3(=O)=O)C[C@@H]3CC[C@@H](C)[C@@](O)(O3)C(=O)C(=O)N3CCCC[C@H]3C(=O)O2)CC[C@H]1OP(C)(C)=O (single isomer, unassigned) [Example 15, C16-(1,1-dioxidoisothiazolidin-2-yl)-C32-deoxo-C40-dimethylphosphinyl-rapamycin] |  |  | IC50 [1]: 3.2 nM
2 | CO[C@H]1C[C@@H]2CC[C@@H](C)[C@@](O)(O2)C(=O)C(=O)N2CCCC[C@H]2C(=O)O[C@H]([C@H](C)C[C@@H]2CC[C@H](n3cnnn3)[C@H](OC)C2)CC[C@H](C)/C=C(\C)[C@@H](O)[C@@H](OC)C(=O)[C@H](C)C[C@H](C)/C=C/C=C/C=C/1C [Intermediate 5] | 0.106 |  | 
3 | CO[C@H]1C[C@@H]2CC[C@@H](C)[C@@](O)(O2)C(=O)C(=O)N2CCCC[C@H]2C(=O)O[C@H]([C@H](C)C[C@@H]2CC[C@@H](OCCO)[C@H](OC)C2)CC(=O)[C@H](C)/C=C(\C)[C@@H](O)[C@@H](OC)C(=O)[C@H](C)C[C@H](C)/C=C/C=C/C=C/1C [RAD001, everolimus, reference compound] | 0.05 | 811 | clearance ([3]; iv, 1 mg/kg): 32 mL/min/kg; bioavailability ([3]; oral, 3 mg/kg): 19%; maximum inhibition of S6K1(Thr389) [4]: 70%
4 | CO[C@@H]1C[C@H](C[C@@H](C)[C@@H]2CC[C@H](C)/C=C(\C)[C@@H](O)[C@@H](OC)C(=O)[C@H](C)C[C@H](C)/C=C/C=C/C=C(\C)C(N3CCCS3(=O)=O)C[C@@H]3CC[C@@H](C)[C@@](O)(O3)C(=O)C(=O)N3CCCC[C@H]3C(=O)O2)CC[C@@H]1n1cnnn1 (single isomer, unassigned) [Example 17] | 1.1 |  | 
5 | CO[C@H]1C[C@@H]2CC[C@@H](C)[C@@](O)(O2)C(=O)C(=O)N2CCCC[C@H]2C(=O)O[C@H]([C@H](C)C[C@@H]2CC[C@@H](O)[C@H](OC)C2)CC[C@H](C)/C=C(\C)[C@@H](O)[C@@H](OC)C(=O)[C@H](C)C[C@H](C)/C=C/C=C/C=C/1C [Intermediate 1, C32-deoxo-rapamycin, reference compound] | 0.092 |  | 
6 | CO[C@@H]1C[C@H](C[C@@H](C)[C@@H]2CC[C@H](C)/C=C(\C)[C@@H](O)[C@@H](OC)C(=O)[C@H](C)C[C@H](C)/C=C/C=C/C=C(\C)[C@@H](N3CCCS3(=O)=O)C[C@@H]3CC[C@@H](C)[C@@](O)(O3)C(=O)C(=O)N3CCCC[C@H]3C(=O)O2)CC[C@H]1O [Example 1, (S)—C16-(1,1-dioxidoisothiazolidin-2-yl)-C32-deoxo-rapamycin] | 2.4 | 153 | Kd [5]: 174 nM; Kd [6]: 0.35 nM
7 | CO[C@@H]1C[C@H](C[C@@H](C)[C@@H]2CC[C@H](C)/C=C(\C)[C@@H](O)[C@@H](OC)C(=O)[C@H](C)C[C@H](C)/C=C/C=C/C=C(\C)C(N3CCS3(=O)=O)C[C@@H]3CC[C@@H](C)[C@@](O)(O3)C(=O)C(=O)N3CCCC[C@H]3C(=O)O2)CC[C@H]1OP(C)(C)=O (single isomer, unassigned) [Example 11, C16-(1,1-dioxido-1,2-thiazetidin-2-yl)-C32-deoxo-C40-dimethylphosphinyl-rapamycin] | 3.33 |  | 
8 | CO[C@@H]1C[C@H](C[C@@H](C)[C@@H]2CC[C@H](C)/C=C(\C)[C@@H](O)[C@@H](OC)C(=O)[C@H](C)C[C@H](C)/C=C/C=C/C=C(\C)[C@H](N3CCCS3(=O)=O)C[C@@H]3CC[C@@H](C)[C@@](O)(O3)C(=O)C(=O)N3CCCC[C@H]3C(=O)O2)CC[C@H]1OCCO [Example 16, (R)—C16-(1,1-dioxidoisothiazolidin-2-yl)-C32-deoxo-C40-(2-hydroxyethoxy)-rapamycin] | 0.645 | 4060 | 
9 | CO[C@@H]1C[C@H](C[C@@H](C)[C@@H]2CC[C@H](C)/C=C(\C)[C@@H](O)[C@@H](OC)C(=O)[C@H](C)C[C@H](C)/C=C/C=C/C=C(\C)C(N3CCN(CCO)C3=O)C[C@@H]3CC[C@@H](C)[C@@](O)(O3)C(=O)C(=O)N3CCCC[C@H]3C(=O)O2)CC[C@H]1O (single isomer, unassigned) [Example 5] | 153 |  | 
10 | CO[C@H]1C[C@@H]2CC[C@@H](C)[C@@](O)(O2)C(=O)C(=O)N2CCCC[C@H]2C(=O)O[C@H]([C@H](C)C[C@@H]2CC[C@@H](OP(C)(C)=O)[C@H](OC)C2)CC[C@H](C)/C=C(\C)[C@@H](O)[C@@H](OC)C(=O)[C@H](C)C[C@H](C)/C=C/C=C/C=C/1C [Intermediate 4] | 0.066 |  | 
11 | CO[C@@H]1C[C@H](C[C@@H](C)[C@@H]2CC[C@H](C)/C=C(\C)[C@@H](O)[C@@H](OC)C(=O)[C@H](C)C[C@H](C)/C=C/C=C/C=C(\C)C(N3CCS3(=O)=O)C[C@@H]3CC[C@@H](C)[C@@](O)(O3)C(=O)C(=O)N3CCCC[C@H]3C(=O)O2)CC[C@H]1OP(C)(C)=O (single isomer, unassigned) [Example 10, C16-(1,1-dioxido-1,2-thiazetidin-2-yl)-C32-deoxo-C40-dimethylphosphinyl-rapamycin] | 0.557 | 95 | 
12 | CO[C@@H]1C[C@H](C[C@@H](C)[C@@H]2CC[C@H](C)/C=C(\C)[C@@H](O)[C@@H](OC)C(=O)[C@H](C)C[C@H](C)/C=C/C=C/C=C(\C)C(N3CCC3=O)C[C@@H]3CC[C@@H](C)[C@@](O)(O3)C(=O)C(=O)N3CCCC[C@H]3C(=O)O2)CC[C@H]1O (single isomer, unassigned) [Example 3] | 1.45 |  | 
13 | CO[C@@H]1C[C@H](C[C@@H](C)[C@@H]2CC[C@H](C)/C=C(\C)[C@@H](O)[C@@H](OC)C(=O)[C@H](C)C[C@H](C)/C=C/C=C/C=C(\C)C(N3CCS3(=O)=O)C[C@@H]3CC[C@@H](C)[C@@](O)(O3)C(=O)C(=O)N3CCCC[C@H]3C(=O)O2)CC[C@H]1O (single isomer, unassigned) [Example 6, C16-(1,1-dioxido-1,2-thiazetidin-2-yl)-C32-deoxo-rapamycin] | 0.17 | 39 | Kd [5]: 53 nM; Kd [6]: 0.32 nM
14 | CO[C@@H]1C[C@H](C[C@@H](C)[C@@H]2CC[C@H](C)/C=C(\C)[C@@H](O)[C@@H](OC)C(=O)[C@H](C)C[C@H](C)/C=C/C=C/C=C(\C)C(N3CCS3(=O)=O)C[C@@H]3CC[C@@H](C)[C@@](O)(O3)C(=O)C(=O)N3CCCC[C@H]3C(=O)O2)CC[C@H]1O (single isomer, unassigned) [Example 7, C16-(1,1-dioxido-1,2-thiazetidin-2-yl)-C32-deoxo-rapamycin] |  | 287 | Kd [5]: 236 nM; Kd [6]: 1.2 nM
15 | CO[C@@H]1C[C@H](C[C@@H](C)[C@@H]2CC[C@H](C)/C=C(\C)[C@@H](O)[C@@H](OC)C(=O)[C@H](C)C[C@H](C)/C=C/C=C/C=C(\C)C(N3CCS3(=O)=O)C[C@@H]3CC[C@@H](C)[C@@](O)(O3)C(=O)C(=O)N3CCCC[C@H]3C(=O)O2)CC[C@@H]1n1cnnn1 (single isomer, unassigned) [Example 12] | 0.374 |  | 
16 | CCOCCO[C@@H]1CC[C@@H](C[C@@H](C)[C@@H]2CC[C@H](C)/C=C(\C)[C@@H](O)[C@@H](OC)C(=O)[C@H](C)C[C@H](C)/C=C/C=C/C=C(\C)C(N3CCCS3(=O)=O)C[C@@H]3CC[C@@H](C)[C@@](O)(O3)C(=O)C(=O)N3CCCC[C@H]3C(=O)O2)C[C@H]1OC (single isomer, unassigned) [Example 18, C16-(1,1-dioxidoisothiazolidin-2-yl)-C32-deoxo-C40-(2-ethoxyethoxy)-rapamycin] | 1.55 |  | 
17 | CO[C@H]1C[C@@H]2CC[C@@H](C)[C@@](O)(O2)C(=O)C(=O)N2CCCC[C@H]2C(=O)O[C@H]([C@H](C)C[C@@H]2CC[C@@H](OCCO)[C@H](OC)C2)CC[C@H](C)/C=C(\C)[C@@H](O)[C@@H](OC)C(=O)[C@H](C)C[C@H](C)/C=C/C=C/C=C/1C [Intermediate 3] | 0.0591 |  | 
18 | CO[C@@H]1C[C@H](C[C@@H](C)[C@@H]2CC[C@H](C)/C=C(\C)[C@@H](O)[C@@H](OC)C(=O)[C@H](C)C[C@H](C)/C=C/C=C/C=C(\C)C(N3CCN(C)C3=O)C[C@@H]3CC[C@@H](C)[C@@](O)(O3)C(=O)C(=O)N3CCCC[C@H]3C(=O)O2)CC[C@H]1O (single isomer, unassigned) [Example 4, C16-(3-methylimidazolidin-2-one-1-yl)-C32-deoxo-rapamycin] | > 500 |  | 
